Reference: patent US20130310439A1, “METHOD OF REDUCING PROTEINS MISFOLDING AND/OR AGGREGATION” (Universidade De Lisboa, priority 2010, published 2013)

Tested on: Q35 animals (C. elegans model of polyQ aggregation)
Assay: polyQ aggregation in Q35 animals treated with cholinergic agonists
Assay type: in vivo
Conditions: one day old (L1s) Q35 animals
Method: FIG. 1A: One day old (L1s) Q35 animals were treated with 25 μM levamisole or 1 mM nicotine. The white boxes indicate magnified areas shown below. The photographs are from 4 days old animals.
FIG. 1B are bar graphs showing the number of aggregates in Q35 animals treated with nicotine, levamisole or control animals as a function of age (days).
Additional methods are described in Garcia et al. (2007), Genes and Development 21: 3006-16.

Compound	polyQ aggregation compared to control animals (25 μM levamisole)	polyQ aggregation compared to control animals (1 mM nicotine)
c1ccc([C@H]2CN3CCSC3=N2)cc1 [levamisole]	increased polyQ aggregation	
CN1CCCC1c1cccnc1 (centres unmarked) [nicotine]		increased polyQ aggregation
